Experimental data: patent publication US20240246978A1, “PHENYLDIHYDROPYRIMIDINE COMPOUND AND USE THEREOF” (HEPAGENE THERAPEUTICS (HK) LIMITED, priority 2021, published 2024)

These molecules were tested on Hepatitis B virus (HBV) (assay: In vitro anti-HBV activity by q-PCR assay of HBV DNA in HepG2.2.15 cell supernatant). Conditions: HepG2.2.15 cells; inhibition of HBV DNA copies in supernatant by qPCR; compound renewed after 3 days, 3 more days; 0.5% DMSO; read-out: EC50.
Type: cell-based
Experimental: Compound preparation and cell culture: The test compounds were prepared as 20 mM storage solution using the appropriate volume of dimethyl sulfoxide (DMSO) (Sigma-D2650) according to the relative molecular weight and mass.
The growth of HepG2.2.15 cells (Wuhan Institute of Virology, Chinese Academy of Sciences) in the culture flasks were observed under a microscope, the cells were digested with trypsin (Invitrogen-25300062), and resuspended with cell culture medium (DMEM/F12, Invitrogen-11330032; containing 2% fetal bovine serum FBS, HyClone-SV30087.03, 100 U/Ml penicillin, Hyclone-SV30010, 100 μg/mL streptomycin, Hyclone-SV30010, 1% non-essential amino acids, Invitrogen-11140-050, 2 mM L-glutamine, Gibco-35050-061); the cells were counted using a Vi-Cell cell counter and the volume and concentration of cell suspension were adjusted according to the number of cell spreads and the number of cells required per well, and the cell spreading density of the 96-well cell culture plates (Costar-3599) was 60,000 cells/well, 100 μL/well; the cell plates with the cells were placed in a 5% CO2, 37° C. incubator and incubated overnight.
The experiments were set at a starting concentration of 100 μM for the test compound and 20 nM for the reference compound entecavir (ETV, WuXi AppTec), with a 3-fold gradient dilution and 9 concentration points. A 96-well V-bottom plate was used, the corresponding test compounds and reference compounds ETV were diluted to obtain 200× compound source plate; a sterile 2 mL deep-well plate was added with 297 μL of cell culture medium, 3 μL of the compounds in the 200× compound source plate were added to the corresponding deep-well plate, diluted by 100-fold, and mixed well with a pipette tip blowing to obtain a 2× compound plate, and then the plate was sealed with parafilm and then stored in a nitrogen cabinet to be used for replacement of the compounds. The cell plate laid out the day before was took and added with 100 μL of diluted 2× compound to each of the corresponding cell wells with a final concentration of 0.5% DMSO. Example of compound distribution in the cell plate is shown below*:
After the cell plates were reintroduced into a 5% CO2, 37° C. cell incubator for 3 days, the medium was removed from the cell culture plates and 100 μL of cell culture solution was replenished to each well. The 200× compound source plate configured was removed from the nitrogen cabinet, a sterile 2 mL deep-well plate was added with 297 μL of cell culture medium, 3 μL of the compounds in the 200× compound source plate was added to the corresponding deep-well plate, diluted by 100-fold, and mixed well with a pipette tip blowing to obtain a 2× compound plate. To the cell wells containing 100 μL of medium, 100 μL of diluted 2× compound was added, with a final concentration of DMSO of 0.5%; the cell plates were reintroduced into 5% CO2 and incubated in a 37° C. cell incubator for 3 days.
The 96-well cell plate was removed from the incubator, centrifuged at 3,000 rpm for 2 min with centrifuge (Beckman, Allegra-X15R), and the cell supernatant was collected for subsequent HBV DNA extraction. 50 μL of cell culture solution were added to each well in the cell plate, then 50 μL of CellTiter-Glo Detection Reagent (Promega-G7573) were added to each well, and the plate was shaken for 10 min away from light to allow the cells to be lysed; the luminescence value of each well was detected by using an enzyme labeller (BioTek Synergy 2).
HBV DNA Extraction: HBV DNA was extracted from cell supernatants using the QIAamp 96 DNA Blood Kit (Qiagen-51162) as described in the kit instructions; the volume of cell supernatant was 150 μL and the final DNA elution volume was 180 μL. […]

`C#Cc1cc(F)ccc1[C@H]1N=C(c2nccs2)NC(CN2CCN3C(=O)N(CC(C)(C)C(=O)O)C[C@@H]3C2)=C1C(=O)OCC` [SZ-023089] and `C#Cc1cc(F)ccc1[C@H]1N=C(c2nccs2)NC(CN2CCO[C@H](CCC(=O)O)C2)=C1C(=O)OCC` [SZ-023095] cannot be ordered by EC50: less than 50 nM for the first, less than 50 nM for the second.

`C#Cc1cc(F)ccc1[C@H]1N=C(c2nccs2)NC(CN2[C@@H]3CC(CC(=O)O)C[C@H]2C(F)(F)C3)=C1C(=O)OCC` (some centres unmarked) [SZ-023091] and `C#Cc1cc(F)ccc1[C@@H]1N=C(c2nccs2)NC(CN2CCO[C@H](/C=C/C(=O)O)C2)=C1C(=O)OCC` [SZ-023093] cannot be ordered by EC50: less than 50 nM for the first, less than 50 nM for the second.

First: C#Cc1cc(F)ccc1[C@@H]1N=C(c2nccs2)NC(CN2CCOCC2)=C1C(=O)OCC [SZ-023115-P1]
Second: C#Cc1cc(F)ccc1[C@H]1N=C(c2nccs2)NC(CN2CCOCC2)=C1C(=O)OCC [SZ-023115-P2]
The EC50 of the first is higher: greater than 1000 nM for the first, less than 50 nM for the second. The second is the more potent here.

Same assay, conditions: Hepatitis B virus, 72 h; HepG2.2.15 cells; inhibition of HBV DNA copies in supernatant by qPCR; compound renewed after 3 days, 3 more days; 0.5% DMSO; read-out: EC50

`C#Cc1cc(F)ccc1C1N=C(c2nccs2)NC(CN2CCN3C(=O)N(CC(C)(C)C(=O)O)C[C@@H]3C2)=C1C(=O)OCC` (mixture of isomers) [SZ-023089RAC] and `C#Cc1cc(F)ccc1[C@@H]1N=C(c2nccs2)NC(CN2CCN3C(=O)N(CC(C)(C)C(=O)O)C[C@@H]3C2)=C1C(=O)OC` [SZ-023145] cannot be ordered by EC50: less than 50 nM for the first, less than 50 nM for the second.

`C#Cc1cc(F)ccc1C1N=C(c2nccs2)NC(CN2CCO[C@H](/C=C/C(=O)O)C2)=C1C(=O)OCC` (mixture of isomers) [SZ-023093RAC] and `[2H]C([2H])([2H])OC(=O)C1=C(CN2CCO[C@H](/C=C/C(=O)O)C2)NC(c2nccs2)=N[C@H]1c1ccc(F)cc1C#C` [SZ-023143] cannot be ordered by EC50: less than 50 nM for the first, less than 50 nM for the second.

`C#Cc1cc(F)ccc1C1N=C(c2nccs2)NC(CN2CCO[C@H](CCC(=O)O)C2)=C1C(=O)OCC` (mixture of isomers) [SZ-023095RAC] and `C#Cc1cc(F)ccc1[C@@H]1N=C(c2nccs2)NC(CN2CCO[C@H](C3CC3C(=O)O)C2)=C1C(=O)OCC` (some centres unmarked) [SZ-023342] fall in the same range of EC50: 50 to 100 nM for the first, 50 to 100 nM for the second.

First: C#Cc1cc(F)ccc1C1N=C(c2nccs2)NC(CN2CCOCC2)=C1C(=O)OCC (racemic) [SZ-023115RAC]
Second: CCOC(=O)C1=C(CN2CCOCC2)NC(c2nccs2)=NC1c1ccc(F)cc1C#N (racemic) [SZ-023117RAC]
The EC50 of the first is lower: less than 50 nM for the first, 50 to 100 nM for the second. The first is the more potent here.

Compared with `C#Cc1c(C2N=C(c3nccs3)NC(CN3CCN4C(=O)N(CC(C)(C)C(=O)O)C[C@@H]4C3)=C2C(=O)OCC)ccc(F)c1F` (some centres unmarked) [SZ-023127], `C#Cc1cc(F)c(F)cc1[C@@H]1N=C(c2nccs2)NC(CN2CCN3C(=O)N(CC(C)(C)C(=O)O)C[C@@H]3C2)=C1C(=O)OCC` [SZ-023129] is higher in EC50: less than 50 nM for the first, 100 to 1000 nM for the second.

`[2H]C([2H])([2H])C([2H])([2H])OC(=O)C1=C(CN2CCN3C(=O)N(CC(C)(C)C(=O)O)C[C@@H]3C2)NC(c2nccs2)=N[C@H]1c1cccc(F)c1C#C` [SZ-023133] and `[2H]C([2H])([2H])C([2H])([2H])OC(=O)C1=C(CN2CCN3C(=O)N(CC(C)(C)C(=O)O)C[C@@H]3C2)NC(c2nccs2)=N[C@H]1c1ccc(F)cc1C#C` [SZ-023149] cannot be ordered by EC50: less than 50 nM for the first, less than 50 nM for the second.

First: [2H]C([2H])([2H])OC(=O)C1=C(CN2CCN3C(=O)N(CC(C)(C)C(=O)O)C[C@@H]3C2)NC(c2nccs2)=N[C@H]1c1ccc(F)cc1C#C [SZ-023147]
Second: C#Cc1cc(F)ccc1[C@@H]1N=C(c2nccs2)NC(CN2CCN3C(=O)N(CC(C)(C)C(=O)O)C[C@@H]3C2)=C1C(=O)SC [SZ-023151]
The EC50 of the first is lower: less than 50 nM for the first, 100 to 1000 nM for the second.

First: C#Cc1cc(Cl)ccc1C1N=C(c2nccs2)NC(CN2CCN3C(=O)N(CC(C)(C)C(=O)O)C[C@@H]3C2)=C1C(=O)OCC (some centres unmarked) [SZ-023366]
Second: C#Cc1cc(C)ccc1C1N=C(c2nccs2)NC(CN2CCN3C(=O)N(CC(C)(C)C(=O)O)C[C@@H]3C2)=C1C(=O)OCC (some centres unmarked) [SZ-023368]
The EC50 of the first is lower: less than 50 nM for the first, 100 to 1000 nM for the second. The first is the more potent here.

First: C#Cc1ccccc1C1N=C(c2nccs2)NC(CN2CCN3C(=O)N(CC(C)(C)C(=O)O)C[C@@H]3C2)=C1C(=O)OCC (some centres unmarked) [SZ-023370]
Second: C#Cc1cc(F)ccc1[C@@H]1N=C(c2nccs2)NC(CN2CCN3C(=O)N(CC(C)(C)CC(=O)O)C[C@@H]3C2)=C1C(=O)OCC [SZ-023392]
The EC50 of the first is higher: 50 to 100 nM for the first, less than 50 nM for the second. The second is the more potent here.

`C#Cc1cc(Cl)ccc1C1N=C(c2nccs2)NC(CN2CCN3C(=O)N(c4ccc(CCC(=O)O)cc4)C[C@@H]3C2)=C1C(=O)OCC` (some centres unmarked) [SZ-023380] and `C#Cc1cc(F)ccc1[C@@H]1N=C(c2nccs2)NC(CN2CCN3C(=O)N(c4ccc(CCC(=O)O)cc4)C[C@@H]3C2)=C1C(=O)OCC` [SZ-023384] cannot be ordered by EC50: less than 50 nM for the first, less than 50 nM for the second.

`C#Cc1c(F)cccc1[C@@H]1N=C(c2nccs2)NC(CN2CCN3C(=O)N(c4ccc(CCC(=O)O)cc4)C[C@@H]3C2)=C1C(=O)OCC` [SZ-023386] and `C#Cc1c(F)cccc1[C@@H]1N=C(c2nccs2)NC(CN2CCN3C(=O)N(c4ccc(C(=O)O)c(F)c4)C[C@@H]3C2)=C1C(=O)OCC` [SZ-023390] cannot be ordered by EC50: less than 50 nM for the first, less than 50 nM for the second.

`C#Cc1cc(F)ccc1[C@@H]1N=C(c2nccs2)NC(CN2CCN3C(=O)N(c4ccc(C(=O)O)c(F)c4)C[C@@H]3C2)=C1C(=O)OCC` [SZ-023388] was tested, and the EC50 was less than 50 nM.

Same assay, conditions: Hepatitis B virus, HepG2.2.15, 72 h

`C#Cc1cc(F)ccc1C1N=C(c2nccs2)NC(CN2[C@@H]3C[C@H](CC(=O)O)C[C@H]2C(F)(F)C3)=C1C(=O)OCC` (mixture of isomers) [SZ-023091RAC] and `C#Cc1cc(F)ccc1[C@@H]1N=C(c2nccs2)NC(CN2[C@@H]3CC(CC(=O)O)C[C@H]2C(F)(F)C3)=C1C(=O)OCC` (some centres unmarked) [SZ-023091C] cannot be ordered by EC50: less than 50 nM for the first, less than 50 nM for the second.

`C#Cc1c(F)cccc1[C@@H]1N=C(c2nccs2)NC(CN2[C@@H]3C[C@H](CC(=O)O)C[C@H]2C(F)(F)C3)=C1C(=O)OCC` [SZ-023085C] gave an EC50 of less than 50 nM.
